Legend:
Format in all cases: functional
MDA-MB-435 [1] = assay: Growth inhibition of human MDA-MB-435 cells assessed as cell growth at 5X10'-5 M after 48 hrs by sulforhodamine B assay; details: MDA-MB-435, 48 h, read-out: Activity
Malme-3M = assay: Growth inhibition of human MALME-3M cells assessed as cell growth at 5X10'-5 M after 48 hrs by sulforhodamine B assay; details: read-out: Activity
U-251 = assay: Growth inhibition of human U251 cells assessed as cell growth at 5X10'-5 M after 48 hrs by sulforhodamine B assay; details: U-251, 48 h, read-out: Activity
SF-268 = assay: Growth inhibition of human SF268 cells assessed as cell growth at 5X10'-5 M after 48 hrs by sulforhodamine B assay; details: SF-268, 48 h, read-out: Activity
HCT-15 [2] = assay: Growth inhibition of human HCT15 cells assessed as cell growth at 5X10'-5 M after 48 hrs by sulforhodamine B assay; details: HCT-15, 48 h, read-out: Activity
NCI-H226 [3] = assay: Growth inhibition of human NCI-H226 cells assessed as cell growth at 5X10'-5 M after 48 hrs by sulforhodamine B assay; details: NCI-H226, 48 h, read-out: Activity
HOP-92 [4] = assay: Growth inhibition of human HOP92 cells assessed as cell growth at 5X10'-5 M after 48 hrs by sulforhodamine B assay; details: HOP-92, 48 h, read-out: Activity
MCF7 [5] = assay: Growth inhibition of human MCF7 cells assessed as cell growth at 5X10'-6 M after 48 hrs by sulforhodamine B assay; details: MCF7, 48 h, read-out: Activity
ACHN = assay: Growth inhibition of human ACHN cells assessed as cell growth at 5X10'-6 M after 48 hrs by sulforhodamine B assay; details: read-out: Activity
MDA-MB-435 [6] = assay: Growth inhibition of human MDA-MB-435 cells assessed as cell growth at 5X10'-6 M after 48 hrs by sulforhodamine B assay; details: MDA-MB-435, 48 h, read-out: Activity
NCI-H226 [7] = assay: Growth inhibition of human NCI-H226 cells assessed as cell growth at 5X10'-9 M after 48 hrs by sulforhodamine B assay; details: NCI-H226, 48 h, read-out: Activity
NCI-H522 = assay: Growth inhibition of human NCI-H522 cells assessed as cell growth at 5X10'-6 M after 48 hrs by sulforhodamine B assay; details: NCI-H522, 48 h, read-out: Activity
NCI-H226 [8] = assay: Growth inhibition of human NCI-H226 cells assessed as cell growth at 5X10'-6 M after 48 hrs by sulforhodamine B assay; details: NCI-H226, 48 h, read-out: Activity
MCF7 [9] = assay: Growth inhibition of human MCF7 cells assessed as cell growth at 5X10'-7 M after 48 hrs by sulforhodamine B assay; details: MCF7, 48 h, read-out: Activity
DU-145 [10] = assay: Growth inhibition of human DU145 cells assessed as cell growth at 5X10'-7 M after 48 hrs by sulforhodamine B assay; details: DU-145, 48 h, read-out: Activity
CAKI-1 = assay: Growth inhibition of human CAKI-1 cells assessed as cell growth at 5X10'-7 M after 48 hrs by sulforhodamine B assay; details: CAKI-1, 48 h, read-out: Activity
786-0 = assay: Growth inhibition of human 786-0 cells assessed as cell growth at 5X10'-7 M after 48 hrs by sulforhodamine B assay; details: 786-0, 48 h, read-out: Activity
RPMI-8226 = assay: Growth inhibition of human RPMI8226 cells assessed as cell growth at 5X10'-7 M after 48 hrs by sulforhodamine B assay; details: RPMI-8226, 48 h, read-out: Activity
[11] = Growth inhibition of human Hs 578T cells assessed as cell growth at 5X10'-8 M after 48 hrs by sulforhodamine B assay; details: read-out: Activity
A498 = assay: Growth inhibition of human A498 cells assessed as cell growth at 5X10'-8 M after 48 hrs by sulforhodamine B assay; details: A498, 48 h, read-out: Activity
UACC-257 [12] = assay: Growth inhibition of human UACC257 cells assessed as cell growth at 5X10'-8 M after 48 hrs by sulforhodamine B assay; details: UACC-257, 48 h, read-out: Activity
SK-MEL-2 = assay: Growth inhibition of human SK-MEL-2 cells assessed as cell growth at 5X10'-8 M after 48 hrs by sulforhodamine B assay; details: SK-MEL-2, 48 h, read-out: Activity
KM12 = assay: Growth inhibition of human KM12 cells assessed as cell growth at 5X10'-8 M after 48 hrs by sulforhodamine B assay; details: KM12, 48 h, read-out: Activity
[13] = Growth inhibition of human Hs 578T cells assessed as cell growth at 5X10'-5 M after 48 hrs by sulforhodamine B assay; details: read-out: Activity
[14] = Growth inhibition of human NCI-ADR-RES cells assessed as cell growth at 5X10'-5 M after 48 hrs by sulforhodamine B assay; details: read-out: Activity
OVCAR-5 = assay: Growth inhibition of human OVCAR5 cells assessed as cell growth at 5X10'-5 M after 48 hrs by sulforhodamine B assay; details: OVCAR-5, 48 h, read-out: Activity
UACC-257 [15] = assay: Growth inhibition of human UACC257 cells assessed as cell growth at 5X10'-5 M after 48 hrs by sulforhodamine B assay; details: UACC-257, 48 h, read-out: Activity
SK-MEL-5 = assay: Growth inhibition of human SK-MEL-5 cells assessed as cell growth at 5X10'-5 M after 48 hrs by sulforhodamine B assay; details: SK-MEL-5, 48 h, read-out: Activity
SK-MEL-28 = assay: Growth inhibition of human SK-MEL-28 cells assessed as cell growth at 5X10'-5 M after 48 hrs by sulforhodamine B assay; details: SK-MEL-28, 48 h, read-out: Activity
HT-29 = assay: Growth inhibition of human HT-29 cells assessed as cell growth at 5X10'-8 M after 48 hrs by sulforhodamine B assay; details: HT-29, 48 h, read-out: Activity
HCT-15 [16] = assay: Growth inhibition of human HCT15 cells assessed as cell growth at 5X10'-8 M after 48 hrs by sulforhodamine B assay; details: HCT-15, 48 h, read-out: Activity
HOP-92 [17] = assay: Growth inhibition of human HOP92 cells assessed as cell growth at 5X10'-8 M after 48 hrs by sulforhodamine B assay; details: HOP-92, 48 h, read-out: Activity
MCF7 [18] = assay: Growth inhibition of human MCF7 cells assessed as cell growth at 5X10'-9 M after 48 hrs by sulforhodamine B assay; details: MCF7, 48 h, read-out: Activity
DU-145 [19] = assay: Growth inhibition of human DU145 cells assessed as cell growth at 5X10'-9 M after 48 hrs by sulforhodamine B assay; details: DU-145, 48 h, read-out: Activity
LOX IMVI = assay: Growth inhibition of human LOXIMVI cells assessed as cell growth at 5X10'-9 M after 48 hrs by sulforhodamine B assay; details: read-out: Activity
SNB-19 = assay: Growth inhibition of human SNB19 cells assessed as cell growth at 5X10'-9 M after 48 hrs by sulforhodamine B assay; details: SNB-19, 48 h, read-out: Activity
SF-295 = assay: Growth inhibition of human SF295 cells assessed as cell growth at 5X10'-9 M after 48 hrs by sulforhodamine B assay; details: SF-295, 48 h, read-out: Activity

Row | SMILES | growth at 50 µM (MDA-MB-435 [1]) [%] | growth at 50 µM (Malme-3M) [%] | growth at 50 µM (U-251) [%] | growth at 50 µM (SF-268) [%] | growth at 50 µM (HCT-15 [2]) [%] | growth at 50 µM (NCI-H226 [3]) [%] | growth at 50 µM (HOP-92 [4]) [%] | growth at 5 µM (MCF7 [5]) [%] | growth at 5 µM (ACHN) [%] | growth at 5 µM (MDA-MB-435 [6]) [%] | growth at 0.005 µM (NCI-H226 [7]) [%] | growth at 5 µM (NCI-H522) [%] | growth at 5 µM (NCI-H226 [8]) [%] | growth at 0.5 µM (MCF7 [9]) [%] | growth at 0.5 µM (DU-145 [10]) [%] | growth at 0.5 µM (CAKI-1) [%] | growth at 0.5 µM (786-0) [%] | growth at 0.5 µM (RPMI-8226) [%] | growth at 0.05 µM [11] [%] | growth at 0.05 µM (A498) [%] | further results
1 | COc1cc(-c2nn(-c3cccc(NC(=O)Nc4ccc(Cl)c(Cl)c4)c3)cc2-c2ccncc2)ccc1Cl | -31 | -43 | -49 | -5 | 5 | 4 | -39 | 2 | 3 | -39 | 98 | -18 | 8 | 68 | 90 | 84 | 89 | 45 | 94 | 89 | growth at 0.05 µM (UACC-257 [12]): 88%; growth at 0.05 µM (SK-MEL-2): 112%; growth at 0.05 µM (KM12): 104%; growth at 50 µM [13]: 4%; growth at 50 µM [14]: -9%; growth at 50 µM (OVCAR-5): 15%; growth at 50 µM (UACC-257 [15]): -30%; growth at 50 µM (SK-MEL-5): -90%; growth at 50 µM (SK-MEL-28): -6%; growth at 0.05 µM (HT-29): 102%; growth at 0.05 µM (HCT-15 [16]): 95%; growth at 0.05 µM (HOP-92 [17]): 64%; growth at 0.005 µM (MCF7 [18]): 91%; growth at 0.005 µM (DU-145 [19]): 103%; growth at 0.005 µM (LOX IMVI): 97%; growth at 0.005 µM (SNB-19): 92%; growth at 0.005 µM (SF-295): 93%
2 | COc1cc(-c2nn(-c3cccc(NC(=O)Nc4cccc(C(F)(F)F)c4)c3)cc2-c2ccncc2)ccc1Cl | -63 | -51 | -84 | -34 | -29 | 7 | -45 | 2 | -8 | -47 | 100 | -30 | 7 | 60 | 90 | 79 | 91 | 40 | 96 | 87 | growth at 0.05 µM (UACC-257 [12]): 98%; growth at 0.05 µM (SK-MEL-2): 98%; growth at 0.05 µM (KM12): 97%; growth at 50 µM [13]: -6%; growth at 50 µM [14]: -9%; growth at 50 µM (OVCAR-5): -43%; growth at 50 µM (UACC-257 [15]): -87%; growth at 50 µM (SK-MEL-5): -97%; growth at 50 µM (SK-MEL-28): -69%; growth at 0.05 µM (HT-29): 99%; growth at 0.05 µM (HCT-15 [16]): 94%; growth at 0.05 µM (HOP-92 [17]): 90%; growth at 0.005 µM (MCF7 [18]): 94%; growth at 0.005 µM (DU-145 [19]): 105%; growth at 0.005 µM (LOX IMVI): 95%; growth at 0.005 µM (SNB-19): 96%; growth at 0.005 µM (SF-295): 96%
3 | COc1cc(-c2nn(-c3cccc(NC(=O)Nc4cc(C(F)(F)F)cc(C(F)(F)F)c4)c3)cc2-c2ccncc2)ccc1Cl | -64 | -63 | -78 | -43 | -75 | -4 | -72 | 2 | 2 | -57 | 97 | -48 | 7 | 68 | 86 | 80 | 92 | 38 | 93 | 82 | growth at 0.05 µM (UACC-257 [12]): 98%; growth at 0.05 µM (SK-MEL-2): 115%; growth at 0.05 µM (KM12): 107%; growth at 50 µM [13]: -10%; growth at 50 µM [14]: -16%; growth at 50 µM (OVCAR-5): -72%; growth at 50 µM (UACC-257 [15]): -54%; growth at 50 µM (SK-MEL-5): -93%; growth at 50 µM (SK-MEL-28): -87%; growth at 0.05 µM (HT-29): 108%; growth at 0.05 µM (HCT-15 [16]): 97%; growth at 0.05 µM (HOP-92 [17]): 67%; growth at 0.005 µM (MCF7 [18]): 92%; growth at 0.005 µM (DU-145 [19]): 106%; growth at 0.005 µM (LOX IMVI): 101%; growth at 0.005 µM (SNB-19): 95%; growth at 0.005 µM (SF-295): 90%

Source: ChEMBL document CHEMBL2440076, “New triarylpyrazoles as broad-spectrum anticancer agents: design, synthesis, and biological evaluation” (Eur J Med Chem, 2013)
